Laboratory results from patent US9598421B2, “Imidazopyridazine compounds” (Pfizer Inc., priority 2014, dated 2017).
Like-named read-outs stand apart in the source and are kept apart here.

How the values were obtained:
Assay type in all cases: biochemical
Human PDE4C = Human PDE4C (Homo sapiens (Human), UniProt Q08493); experiment: PDE4C Scintillation Proximity Assay (SPA), inhibition of enzyme activity; conditions: read-out: Human PDE4C FL
Description: (§1) The PDE4A3, PDE4B1, PDE4C1 and PDE4D3 assays use the Scintillation Proximity Assay (SPA) technology to measure the inhibition of human recombinant PDE4A1, PDE4B3, PDE4C1, and PDE4D3 enzyme activity by compounds in vitro. The PDE4A1, PDE4B3, PDE4C1, and PDE4D3 assays are run in parallel using identical parameters, except for the concentration of enzyme (80 pM PDE4A3, 40 pM PDE4B3, 40 pM PDE4C1 and 10 pM PDE4D). […] Reactions are incubated for 30 min at 25° C. The addition of 20 uL of 8 mg/ml yitrium silicate SPA beads (Perkin Elmer) stops the reaction. The plates are sealed (TopSeal, Perkin Elmer) and the beads are allowed to settle for 8 hrs, after which they are read on the Trilux Microbeta overnight.

Human PDE4D = Human PDE4D (Homo sapiens (Human), UniProt Q08499); experiment: PDE4D Scintillation Proximity Assay (SPA), inhibition of enzyme activity; conditions: read-out: Human PDE4D FL
Human PDE4A = Human PDE4A (Homo sapiens (Human), UniProt P27815); experiment: PDE4A Scintillation Proximity Assay (SPA), inhibition of enzyme activity; conditions: read-out: Human PDE4A FL
Description: as §1

[1] = human recombinant enzyme, 1 μM cAMP substrate, 30 min at 25° C., geometric mean of 2-9 determinations unless otherwise indicated

Human PDE4A, sequence (P27815 other isoform, or with tags, fused parts or gaps): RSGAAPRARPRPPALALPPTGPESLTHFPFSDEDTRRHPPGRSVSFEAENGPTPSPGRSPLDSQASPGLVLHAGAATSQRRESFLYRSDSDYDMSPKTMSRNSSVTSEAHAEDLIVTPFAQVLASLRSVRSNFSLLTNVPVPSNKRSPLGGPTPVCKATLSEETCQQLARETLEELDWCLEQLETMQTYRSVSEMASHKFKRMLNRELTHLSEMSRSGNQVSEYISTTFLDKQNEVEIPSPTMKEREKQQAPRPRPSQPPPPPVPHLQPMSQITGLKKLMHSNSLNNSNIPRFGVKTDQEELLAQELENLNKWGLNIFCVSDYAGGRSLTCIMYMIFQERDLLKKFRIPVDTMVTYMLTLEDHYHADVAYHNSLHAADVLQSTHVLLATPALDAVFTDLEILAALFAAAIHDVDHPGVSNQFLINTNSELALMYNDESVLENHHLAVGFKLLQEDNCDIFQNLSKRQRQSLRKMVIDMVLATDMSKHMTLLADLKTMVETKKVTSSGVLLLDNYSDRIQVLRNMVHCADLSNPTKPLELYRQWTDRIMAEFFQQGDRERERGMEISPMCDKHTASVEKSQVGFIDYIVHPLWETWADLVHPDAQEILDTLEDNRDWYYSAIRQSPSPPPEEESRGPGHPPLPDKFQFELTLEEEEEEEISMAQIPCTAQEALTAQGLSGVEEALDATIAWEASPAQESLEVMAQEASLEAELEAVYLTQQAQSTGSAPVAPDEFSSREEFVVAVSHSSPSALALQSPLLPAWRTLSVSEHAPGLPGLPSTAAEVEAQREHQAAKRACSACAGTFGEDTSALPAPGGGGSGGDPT
Human PDE4C, sequence (Q08493 2-712): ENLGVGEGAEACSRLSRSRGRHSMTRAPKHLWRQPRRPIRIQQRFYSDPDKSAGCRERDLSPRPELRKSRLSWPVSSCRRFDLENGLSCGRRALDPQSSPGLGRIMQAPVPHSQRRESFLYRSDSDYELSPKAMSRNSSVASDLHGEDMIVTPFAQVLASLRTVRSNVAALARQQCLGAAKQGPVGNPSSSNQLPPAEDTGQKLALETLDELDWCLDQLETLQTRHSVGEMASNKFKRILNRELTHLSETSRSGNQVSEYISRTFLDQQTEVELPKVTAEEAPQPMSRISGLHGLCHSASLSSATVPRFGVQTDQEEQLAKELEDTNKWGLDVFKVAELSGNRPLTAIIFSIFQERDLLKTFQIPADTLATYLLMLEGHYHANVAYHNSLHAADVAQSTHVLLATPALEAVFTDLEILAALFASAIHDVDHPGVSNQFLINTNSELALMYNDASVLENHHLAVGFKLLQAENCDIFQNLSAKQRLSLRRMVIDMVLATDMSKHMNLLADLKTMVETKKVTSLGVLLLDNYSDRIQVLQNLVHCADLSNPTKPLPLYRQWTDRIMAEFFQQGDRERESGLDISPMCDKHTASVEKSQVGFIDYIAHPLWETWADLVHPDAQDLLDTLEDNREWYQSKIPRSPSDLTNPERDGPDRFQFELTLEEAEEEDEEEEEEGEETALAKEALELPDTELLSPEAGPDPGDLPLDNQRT
Human PDE4D, sequence (Q08499 186-808): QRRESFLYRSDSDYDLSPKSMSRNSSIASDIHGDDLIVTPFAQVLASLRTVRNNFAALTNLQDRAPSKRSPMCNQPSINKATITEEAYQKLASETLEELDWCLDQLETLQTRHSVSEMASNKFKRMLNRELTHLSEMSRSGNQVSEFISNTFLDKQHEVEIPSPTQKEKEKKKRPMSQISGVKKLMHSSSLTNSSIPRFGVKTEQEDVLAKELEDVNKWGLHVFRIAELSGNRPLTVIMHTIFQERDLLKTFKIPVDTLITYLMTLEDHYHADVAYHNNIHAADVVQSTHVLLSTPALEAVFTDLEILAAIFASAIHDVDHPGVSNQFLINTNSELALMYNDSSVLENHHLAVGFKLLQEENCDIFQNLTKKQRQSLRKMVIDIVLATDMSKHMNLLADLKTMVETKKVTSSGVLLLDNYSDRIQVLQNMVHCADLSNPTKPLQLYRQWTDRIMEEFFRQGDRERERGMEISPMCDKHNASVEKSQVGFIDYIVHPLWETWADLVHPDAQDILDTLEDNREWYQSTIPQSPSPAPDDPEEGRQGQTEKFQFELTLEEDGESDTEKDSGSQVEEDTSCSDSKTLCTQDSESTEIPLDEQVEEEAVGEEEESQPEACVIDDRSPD

Row | SMILES | IC50 (Human PDE4C) [µM] | IC50 (Human PDE4D) [µM] | IC50 (Human PDE4A) [µM] | IC50 (Human PDE4A; [1]) [µM] | IC50 (Human PDE4C; [1]) [µM] | IC50 (Human PDE4D; [1]) [µM]
1 | O=C(c1nc2cccnn2c1-c1ccc(Cl)cc1)N1CCC1 [Example 1, Azetidin-1-yl[3-(4-chlorophenyl)imidazo[1,2-b]pyridazin-2-yl]methanone] | 0.13 | 10.3 |  |  |  | 
2 | O=C(NC1CC1)c1nc2cccnn2c1-c1ccc(Cl)cc1 [Example 2, 3-(4-Chlorophenyl)-N-cyclopropylimidazo[1,2-b]pyridazine-2-carboxamide] | 0.0279 | 4.34 | 0.0107 |  |  | 
3 | COc1c(F)cc(-c2c(C(=O)N3CCC3)nc3cccnn23)cc1F [Example 3, Azetidin-1-yl[3-(3,5-difluoro-4-methoxyphenyl)imidazo[1,2-b]pyridazin-2-yl]methanone] | 0.0519 | 2.41 | 0.0127 |  |  | 
4 | N#Cc1ccc(-c2c(C(=O)NC3CC3)nc3cccnn23)cn1 [Example 5, 3-(6-Cyanopyridin-3-yl)-N-cyclopropylimidazo[1,2-b]pyridazine-2-carboxamide] |  | > 26.6 |  | 0.0402 | 0.208 | 
5 | Cn1cc(NC(=O)c2nc3cccnn3c2-c2ccc(Cl)c(F)c2)cn1 [Example 7, 3-(4-Chloro-3-fluorophenyl)-N-(1-methyl-1H-pyrazol-4-yl)imidazo[1,2-b]pyridazine-2-carboxamide] | 0.00235 | 0.0345 | 0.00277 |  |  | 
6 | O=C(c1nc2cccnn2c1-c1ccc2ccnn2c1)N1CCC1 [Example 8, Azetidin-1-yl[3-(pyrazolo[1,5-a]pyridin-6-yl)imidazo[1,2-b]pyridazin-2-yl]methanone] |  |  |  | 0.02 |  | 5.44
7 | O=C(NC1CC1)c1nc2cccnn2c1-c1cc(F)c(Cl)cc1F [Example 9, 3-(4-Chloro-2,5-difluorophenyl)-N-cyclopropylimidazo[1,2-b]pyridazine-2-carboxamide] |  |  |  | 0.00383 | 0.0409 | 1.49
8 | O=C(NC1CC1)c1nc2cccnn2c1-c1ccc(Cl)c(F)c1 [Example 10, 3-(4-chloro-3-fluorophenyl)-N-cyclopropylimidazo[1,2-b]pyridazine-2-carboxamide] |  |  |  | 0.00151 | 0.00684 | 0.59
9 | Cc1cc(Cl)ccc1-c1c(C(=O)NC2CC2)nc2cccnn12 [Example 12, 3-(4-chloro-2-methylphenyl)-N-cyclopropylimidazo[1,2-b]pyridazine-2-carboxamide] |  |  |  | 0.0144 | 0.0896 | 5.22
10 | O=C(c1nc2cccnn2c1-c1ccc(Cl)c(F)c1)N1CCC1 [Example 13, azetidin-1-yl[3-(4-chloro-3-fluorophenyl)imidazo[1,2-b]pyridazin-2-yl]methanone] |  |  |  | 0.00513 | 0.0173 | 0.669
11 | O=C(NC1CC1)c1nc2cccnn2c1-c1cncc(Cl)c1 [Example 14, 3-(5-chloropyridin-3-yl)-N-cyclopropylimidazo[1,2-b]pyridazine-2-carboxamide] |  |  |  | 0.0737 | 0.108 | > 8.01
12 | Cc1cc(-c2c(C(=O)N3CCC3)nc3cccnn23)c(F)cc1C#N [Example 18, 4-[2-(azetidin-1-ylcarbonyl)imidazo[1,2-b]pyridazin-3-yl]-5-fluoro-2-methylbenzonitrile] |  |  |  | 0.055 | 0.147 | 8.2
13 | Cc1cc(C#N)c(F)cc1-c1c(C(=O)N2CCC2)nc2cccnn12 [Example 20, 4-[2-(azetidin-1-ylcarbonyl)imidazo[1,2-b]pyridazin-3-yl]-2-fluoro-5-methylbenzonitrile] |  |  |  | 0.0067 | 0.0748 | 0.49
14 | O=C(NC1CC1)c1nc2cccnn2c1-c1ccc2ccnn2c1 [Example 22, N-cyclopropyl-3-(pyrazolo[1,5-a]pyridin-6-yl)imidazo[1,2-b]pyridazine-2-carboxamide] |  |  |  | 0.0276 | 0.0712 | 1.89
15 | N#Cc1ccc(-c2c(C(=O)N3CCC3)nc3cccnn23)cc1F [Example 23, 4-[2-(azetidin-1-ylcarbonyl)imidazo[1,2-b]pyridazin-3-yl]-2-fluorobenzonitrile] |  |  |  | 0.0151 | 0.0458 | 4.13
16 | N#Cc1cc(F)c(-c2c(C(=O)N3CCC3)nc3cccnn23)cc1F [Example 24, 4-[2-(azetidin-1-ylcarbonyl)imidazo[1,2-b]pyridazin-3-yl]-2,5-difluorobenzonitrile] |  |  |  | 0.00504 | 0.0597 | > 2.15
17 | CNC(=O)c1nc2cccnn2c1-c1cc(F)c(Cl)cc1C [Example 25, 3-(4-chloro-5-fluoro-2-methylphenyl)-N-methylimidazo[1,2-b]pyridazine-2-carboxamide] |  |  |  | 0.0386 | 0.15 | 4.97
18 | CCCNC(=O)c1nc2cccnn2c1-c1ccc(Cl)cc1 [Example 26, 3-(4-chlorophenyl)-N-propylimidazo[1,2-b]pyridazine-2-carboxamide] |  |  |  | 0.0855 | 0.111 | 3.8
19 | CCCNC(=O)c1nc2cccnn2c1-c1cc(Cl)cc(Cl)c1 [Example 28, 3-(3,5-dichlorophenyl)-N-propylimidazo[1,2-b]pyridazine-2-carboxamide] |  |  |  | 0.0156 | 0.049 | 0.393
20 | CCCNC(=O)c1nc2cccnn2c1-c1ccc(Cl)c(F)c1 [Example 29, 3-(4-chloro-3-fluorophenyl)-N-propylimidazo[1,2-b]pyridazine-2-carboxamide] |  |  |  | 0.00348 | 0.0138 | 0.409
21 | CC1CC1NC(=O)c1nc2cccnn2c1-c1ccc(Cl)cc1 (stereo not shown) [Example 30, 3-(4-chlorophenyl)-N-(2-methylcyclopropyl)imidazo[1,2-b]pyridazine-2-carboxamide] |  |  |  | 0.0116 | 0.0245 | 4
22 | COC1CN(C(=O)c2nc3cccnn3c2-c2ccc(Cl)cc2)C1 [Example 31, [3-(4-chlorophenyl)imidazo[1,2-b]pyridazin-2-yl](3-methoxyazetidin-1-yl)methanone] |  |  |  | 2.82 | 5.81 | < 26.2
23 | CN(C(=O)c1nc2cccnn2c1-c1ccc(Cl)cc1)C1CC1 [Example 32, 3-(4-chlorophenyl)-N-cyclopropyl-N-methylimidazo[1,2-b]pyridazine-2-carboxamide] |  |  |  | 1.03 | 0.469 | > 30
24 | CC1(NC(=O)c2nc3cccnn3c2-c2ccc(Cl)cc2)CC1 [Example 33, 3-(4-chlorophenyl)-N-(1-methylcyclopropyl)imidazo[1,2-b]pyridazine-2-carboxamide] |  |  |  | 0.0586 | 0.127 | 2.33
25 | O=C(NC1CC1)c1nc2cccnn2c1-c1cc(F)cc(Cl)c1 [Example 35, 3-(3-chloro-5-fluorophenyl)-N-cyclopropylimidazo[1,2-b]pyridazine-2-carboxamide] |  |  |  | 0.0357 | 0.037 | 1.22
26 | O=C(NC1CC1)c1nc2cccnn2c1-c1cccc(Cl)c1 [Example 36, 3-(3-chlorophenyl)-N-cyclopropylimidazo[1,2-b]pyridazine-2-carboxamide] |  |  |  | 0.0237 | 0.021 | 0.254
27 | O=C(NC12CC(C1)C2)c1nc2cccnn2c1-c1ccc(Cl)cc1 [Example 37, N-(bicyclo[1.1.1]pent-1-yl)-3-(4-chlorophenyl)imidazo[1,2-b]pyridazine-2-carboxamide] |  |  |  | 0.127 | 0.161 | 2.57
